Measured values taken from patent US20240142467A1, “Use of Biomarkers in the Treatment of Fibrotic Conditions with a PDE4B-inhibitor” (Boehringer Ingelheim International GmbH, priority 2022, published 2024).

Test system: patients with idiopathic pulmonary fibrosis
Experiment: Phase 2 trial NCT04419506: biomarker analysis in blood plasma or serum (ELISA, Luminex; MMRM)
Assay type: in vivo, human
Method: Blood samples were collected from patients during the clinical phase 2 trial at baseline, at 2, 4, 8 and 12 weeks (after baseline) of the “Compound of formula A′ treatment arm” and of the “Placebo arm”, and blood plasma and/or blood serum was prepared according to methods known in the art.
Fibrosis-related biomarkers were assessed in plasma or serum using ELISA or Luminex technologies. The changes in these fibrosis-related biomarkers at weeks 2, 4, 8 and 12 after baseline were analysed using mixed models with repeated measures (MMRM). The fold changes in the tested biomarkers over baseline over time were then compared between patients of the of the “Compound of formula A′ treatment arm” and patients of the “Placebo arm”.
Biomarker values were only considered valid up to +2 days for CRP and up to +7 days after last drug intake for all other proteins.
At MLM (MLM Medical Labs GmbH, Mönchengladbach, Germany, www.mlm-labs.com) the biomarker KL-6 (Krebs von den Lungen) was measured using CLEIA Test kits (Lumipulse® G KL-6 Immunoreaction Cartridges) from Fujirebio (www.fujirebio.com) and a Lumipulse G1200 system, the biomarker sICAM-1 was measured using an ECLIA assay (V-PLEX Plus Vascular Injury Panel 2 Human Kit) from Meso Scale Discovery (MSD) on the Meso QuickPlex SQ120 device, and the biomarker MMP-7 was measured using a Quantikine® ELISA assay (Human MMP-7/PARC Quantikine® ELISA kit) from R&D Systems on a TECAN Absorbance Reader, according to manufacturer's instructions.
The biomarkers CA-125, CA19-9, COMP, CRP, E-selectin, sICAM-1, MMP-3, MMP-7, Prostasin, TIMP-1, and vWF were measured using validated microsphere-based immune-multiplexing assays using Luminex technology at MyriadRBM (Rules Based Medicine, a q2 solutions company, Austin, Texas, USA, www.rbm.q2labsolutions.com).
The biomarker data as collected from the different treatment groups of the phase II trial have been analysed with regard to three different aspects: • 1. The biomarker data has been analysed with regard to the “pharmacodynamic potential” of each respective biomarker, that means the change from baseline (CfB) of the biomarker level over time during treatment with the compound of formula A′ has been analysed. […] The biomarker data has been analysed with regard to the “prognostic potential” of each respective biomarker, that means the level of biomarker at baseline vs. clinical outcome after 12 weeks (=the absolute FVC [mL] change from baseline at week 12 and the absolute change from baseline in Dlco % predicted at week 12) in the Placebo groups has been analysed which is disease-related and may be used to assess the progression of the disease (e.g. fast vs. slow progressors). • 3. The biomarker data has been analysed with regard to their “outcome-related potential” of each respective biomarker, that means the change from baseline (CfB) in biomarker level vs. the clinical outcomes after 12 weeks (=the absolute FVC [mL] change from baseline at week 12 and the absolute change from baseline in Dlco % predicted at week 12) in the compound of formula A′ treatment groups has been analysed. Hereby, a potential early prediction of both clinical endpoint and treatment effect may be achieved.

[1] = AF-background, listed as Comp. A′
[2] = Non-AF-background, listed as Comp. A′

[O-][S@+]1CCc2nc(N3CCC(c4ncc(Cl)cn4)CC3)nc(NC3(CO)CCC3)c21 [Compound of formula A′]
CRP: change of biomarker from baseline to Week 12 in Comp. A′ arm vs. Placebo arm (AF-background): increased | E-selectin: change of biomarker from baseline to Week 12 in Comp. A′ arm vs. Placebo arm (AF-background): decreased | KL-6: change of biomarker from baseline to Week 12 in Comp. A′ arm vs. Placebo arm (AF-background): decreased | Matrilysin (MMP7, MLM): change of biomarker from baseline to Week 12 in Comp. A′ arm vs. Placebo arm (AF-background): decreased | Prostasin: change of biomarker from baseline to Week 12 in Comp. A′ arm vs. Placebo arm (AF-background): ↓ | SP-D: change of biomarker from baseline to Week 12 in Comp. A′ arm vs. Placebo arm (AF-background): decreased | CA19.9 (U/mL): fold change from baseline to Week 4, adjusted mean (AF-background, blood, MMRM): 0.987 | CA19.9 (U/mL): fold change from baseline to Week 12, adjusted mean (AF-background, blood, MMRM): 0.914 | CA-125 (MUC-16) (U/mL): fold change from baseline to Week 4, adjusted mean (AF-background, blood, MMRM): 1.030 | CA-125 (MUC-16) (U/mL): fold change from baseline to Week 12, adjusted mean (AF-background, blood, MMRM): 1.067 | COMP (μg/L): fold change from baseline to Week 4, adjusted mean (AF-background, blood, MMRM): 0.991 | COMP (μg/L): fold change from baseline to Week 12, adjusted mean (AF-background, blood, MMRM): 1.023 | CRP (mg/L): fold change from baseline to Week 4, adjusted mean (AF-background, blood, MMRM): 1.780 | CRP (mg/L): fold change from baseline to Week 12, adjusted mean (AF-background, blood, MMRM): 1.545 | E-selectin (μg/L): fold change from baseline to Week 4, adjusted mean (AF-background, blood, MMRM): 0.933 | E-selectin (μg/L): fold change from baseline to Week 12, adjusted mean (AF-background, blood, MMRM): 0.936 | KL-6 (U/mL): fold change from baseline to Week 4, adjusted mean (AF-background, blood, MMRM): 0.960 | KL-6 (U/mL): fold change from baseline to Week 12, adjusted mean (AF-background, blood, MMRM): 0.923 | Matrilysin (μg/L) (MMP7, MLM): fold change from baseline to Week 4, adjusted mean (AF-background, blood, MMRM): 0.941 | Matrilysin (μg/L) (MMP7, MLM): fold change from baseline to Week 12, adjusted mean (AF-background, blood, MMRM): 0.981 | Prostasin (μg/L): fold change from baseline to Week 4, adjusted mean (AF-background, blood, MMRM): 0.939 | Prostasin (μg/L): fold change from baseline to Week 12, adjusted mean (AF-background, blood, MMRM): 0.933 | SP-D (μg/L): fold change from baseline to Week 4, adjusted mean (AF-background, blood, MMRM): 0.879 | SP-D (μg/L): fold change from baseline to Week 12, adjusted mean (AF-background, blood, MMRM): 0.894 | Stromelysin-1 MMP3) (μg/L): fold change from baseline to Week 4, adjusted mean (AF-background, blood, MMRM): 1.063 | Stromelysin-1 MMP3) (μg/L): fold change from baseline to Week 12, adjusted mean (AF-background, blood, MMRM): 1.056 | sICAM1 (RBM) (μg/L): fold change from baseline to Week 4, adjusted mean (AF-background, blood, MMRM): 1.049 | sICAM1 (RBM) (μg/L): fold change from baseline to Week 12, adjusted mean (AF-background, blood, MMRM): 1.069 | vWF (mg/L): fold change from baseline to Week 4, adjusted mean (AF-background, blood, MMRM): 1.035 | vWF (mg/L): fold change from baseline to Week 12, adjusted mean (AF-background, blood, MMRM): 0.964 | CRP: change of biomarker from baseline to Week 12 in Comp. A′ arm vs. Placebo arm [1]: ↑ (significant increase) | E-selectin: change of biomarker from baseline to Week 12 in Comp. A′ arm vs. Placebo arm [1]: ↓ | KL-6: change of biomarker from baseline to Week 12 in Comp. A′ arm vs. Placebo arm [1]: ↓ (significant decrease) | Matrilysin (MMP7, MLM): change of biomarker from baseline to Week 12 in Comp. A′ arm vs. Placebo arm [1]: ↓ | SP-D: change of biomarker from baseline to Week 12 in Comp. A′ arm vs. Placebo arm [1]: ↓ (significant decrease) | CA19-9: change of biomarker from baseline to Week 12 in Comp. A′ arm vs. Placebo arm (Non-AF-background): ↓ | CA-125 (MUC-16): change of biomarker from baseline to Week 12 in Comp. A′ arm vs. Placebo arm (Non-AF-background): decreased | COMP: change of biomarker from baseline to Week 12 in Comp. A′ arm vs. Placebo arm (Non-AF-background): decreased | CRP: change of biomarker from baseline to Week 12 in Comp. A′ arm vs. Placebo arm (Non-AF-background): increased | E-selectin: change of biomarker from baseline to Week 12 in Comp. A′ arm vs. Placebo arm (Non-AF-background): decreased | KL-6: change of biomarker from baseline to Week 12 in Comp. A′ arm vs. Placebo arm (Non-AF-background): decreased | Matrilysin (MMP7, MLM): change of biomarker from baseline to Week 12 in Comp. A′ arm vs. Placebo arm (Non-AF-background): decreased | Prostasin: change of biomarker from baseline to Week 12 in Comp. A′ arm vs. Placebo arm (Non-AF-background): decreased | SP-D: change of biomarker from baseline to Week 12 in Comp. A′ arm vs. Placebo arm (Non-AF-background): decreased | Stromelysin-1 (MMP3): change of biomarker from baseline to Week 12 in Comp. A′ arm vs. Placebo arm (Non-AF-background): ↓ | sICAM1 (RBM): change of biomarker from baseline to Week 12 in Comp. A′ arm vs. Placebo arm (Non-AF-background): basically the same | vWF: change of biomarker from baseline to Week 12 in Comp. A′ arm vs. Placebo arm (Non-AF-background): decreased | CA19-9 (U/mL): fold change from baseline to Week 4, adjusted mean (Non-AF-background, blood, MMRM): 0.901 | CA19-9 (U/mL): fold change from baseline to Week 12, adjusted mean (Non-AF-background, blood, MMRM): 1.016 | CA-125 (MUC-16) (U/mL): fold change from baseline to Week 4, adjusted mean (Non-AF-background, blood, MMRM): 0.956 | CA-125 (MUC-16) (U/mL): fold change from baseline to Week 12, adjusted mean (Non-AF-background, blood, MMRM): 1.039 | COMP (μg/L): fold change from baseline to Week 4, adjusted mean (Non-AF-background, blood, MMRM): 0.970 | COMP (μg/L): fold change from baseline to Week 12, adjusted mean (Non-AF-background, blood, MMRM): 0.949 | CRP (mg/L): fold change from baseline to Week 4, adjusted mean (Non-AF-background, blood, MMRM): 2.134 | CRP (mg/L): fold change from baseline to Week 12, adjusted mean (Non-AF-background, blood, MMRM): 1.479 | E-selectin (μg/L): fold change from baseline to Week 4, adjusted mean (Non-AF-background, blood, MMRM): 0.943 | E-selectin (μg/L): fold change from baseline to Week 12, adjusted mean (Non-AF-background, blood, MMRM): 0.982 | KL-6 (U/mL): fold change from baseline to Week 4, adjusted mean (Non-AF-background, blood, MMRM): 0.911 | KL-6 (U/mL): fold change from baseline to Week 12, adjusted mean (Non-AF-background, blood, MMRM): 0.916 | Matrilysin (μg/L) (MMP7, MLM): fold change from baseline to Week 4, adjusted mean (Non-AF-background, blood, MMRM): 0.908 | Matrilysin (μg/L) (MMP7, MLM): fold change from baseline to Week 12, adjusted mean (Non-AF-background, blood, MMRM): 0.883 | Prostasin (μg/L): fold change from baseline to Week 4, adjusted mean (Non-AF-background, blood, MMRM): 0.883 | Prostasin (μg/L): fold change from baseline to Week 12, adjusted mean (Non-AF-background, blood, MMRM): 0.905 | SP-D (μg/L): fold change from baseline to Week 4, adjusted mean (Non-AF-background, blood, MMRM): 0.833 | SP-D (μg/L): fold change from baseline to Week 12, adjusted mean (Non-AF-background, blood, MMRM): 0.875 | Stromelysin-1 MMP3) (μg/L): fold change from baseline to Week 4, adjusted mean (Non-AF-background, blood, MMRM): 0.963 | Stromelysin-1 MMP3) (μg/L): fold change from baseline to Week 12, adjusted mean (Non-AF-background, blood, MMRM): 0.960 | sICAM1 (RBM) (μg/L): fold change from baseline to Week 4, adjusted mean (Non-AF-background, blood, MMRM): 0.956 | sICAM1 (RBM) (μg/L): fold change from baseline to Week 12, adjusted mean (Non-AF-background, blood, MMRM): 0.937 | vWF (μg/L) (mg/L): fold change from baseline to Week 4, adjusted mean (Non-AF-background, blood, MMRM): 0.991 | vWF (μg/L) (mg/L): fold change from baseline to Week 12, adjusted mean (Non-AF-background, blood, MMRM): 0.972 | CA-125 (MUC-16): change of biomarker from baseline to Week 12 in Comp. A′ arm vs. Placebo arm [2]: ↓ (minor decrease) | COMP: change of biomarker from baseline to Week 12 in Comp. A′ arm vs. Placebo arm [2]: ↓ | CRP: change of biomarker from baseline to Week 12 in Comp. A′ arm vs. Placebo arm [2]: ↑ (significant increase) | E-selectin: change of biomarker from baseline to Week 12 in Comp. A′ arm vs. Placebo arm [2]: ↓ | KL-6: change of biomarker from baseline to Week 12 in Comp. A′ arm vs. Placebo arm [2]: ↓ (significant decrease) | Matrilysin (MMP7, MLM): change of biomarker from baseline to Week 12 in Comp. A′ arm vs. Placebo arm [2]: ↓ (significant decrease) | Prostasin: change of biomarker from baseline to Week 12 in Comp. A′ arm vs. Placebo arm [2]: ↓ | SP-D: change of biomarker from baseline to Week 12 in Comp. A′ arm vs. Placebo arm [2]: ↓ (significant decrease) | vWF: change of biomarker from baseline to Week 12 in Comp. A′ arm vs. Placebo arm [2]: ↓ | elevation of the CRP-levels (treatment groups regardless of background therapy): approximately 2 ×
